Where two headings read alike, the source gives them in different places.
Experiments:
[1] = target: Human thrombin (Homo sapiens, UniProt P00734); experiment: biochemical; conditions: for inhibition at 100 µM: read-out: % Inhibition Thrombin II at 100 μM
[2] = target: T1, recombinant soluble tissue factor and recombinant human factor VIIa (TF-VIIa) (Homo sapiens, UniProt P08709); experiment: TF-VIIa Assay; assay type: biochemical; conditions: for IC50: read-out: IC50 TF-VIIa; for inhibition at 30 µM: 1 h
T1 construct: conversion of coagulation factor VII to VIIa by Xa; purchased American Diagnostica, Greenwich Conn; host or cells: VIIa purchased; soluble TF made in house in E. coli

[3] = target: Human factor Xa (Homo sapiens, UniProt P00742); experiment: Xa Assay; assay type: biochemical; parameters: purchased Enzyme Research Laboratories, South Bend Ind; conditions: for inhibition at 100 µM: at 100 μM inhibitor
Human factor Xa, sequence (P00742 41-179 limits assumed): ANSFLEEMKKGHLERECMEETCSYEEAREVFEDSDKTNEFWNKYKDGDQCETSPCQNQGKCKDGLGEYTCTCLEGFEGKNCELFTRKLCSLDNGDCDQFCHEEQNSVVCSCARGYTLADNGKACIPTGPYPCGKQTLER
Human factor Xa, sequence (P00742 235-488 limits assumed): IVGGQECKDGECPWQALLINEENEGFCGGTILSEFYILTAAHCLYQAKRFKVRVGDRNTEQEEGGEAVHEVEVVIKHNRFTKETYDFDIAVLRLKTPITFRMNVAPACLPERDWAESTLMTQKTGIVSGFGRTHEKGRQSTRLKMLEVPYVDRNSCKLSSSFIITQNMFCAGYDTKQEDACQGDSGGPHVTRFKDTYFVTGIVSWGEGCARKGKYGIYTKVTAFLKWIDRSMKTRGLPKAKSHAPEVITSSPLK

T1 sequence (P08709 61-212 limits assumed): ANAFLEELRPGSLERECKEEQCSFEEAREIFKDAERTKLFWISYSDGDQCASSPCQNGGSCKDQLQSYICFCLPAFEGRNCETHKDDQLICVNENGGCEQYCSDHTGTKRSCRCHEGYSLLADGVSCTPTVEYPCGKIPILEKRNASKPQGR
T1 sequence (P08709 213-466 limits assumed): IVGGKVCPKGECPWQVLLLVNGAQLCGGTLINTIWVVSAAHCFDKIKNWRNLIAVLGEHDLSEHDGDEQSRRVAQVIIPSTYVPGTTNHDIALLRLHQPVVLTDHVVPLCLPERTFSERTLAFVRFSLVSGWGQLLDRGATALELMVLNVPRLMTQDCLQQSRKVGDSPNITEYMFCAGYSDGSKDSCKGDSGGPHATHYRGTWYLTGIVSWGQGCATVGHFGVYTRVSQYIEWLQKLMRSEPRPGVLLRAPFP
T1 sequence (P13726 33-251 partner limits assumed): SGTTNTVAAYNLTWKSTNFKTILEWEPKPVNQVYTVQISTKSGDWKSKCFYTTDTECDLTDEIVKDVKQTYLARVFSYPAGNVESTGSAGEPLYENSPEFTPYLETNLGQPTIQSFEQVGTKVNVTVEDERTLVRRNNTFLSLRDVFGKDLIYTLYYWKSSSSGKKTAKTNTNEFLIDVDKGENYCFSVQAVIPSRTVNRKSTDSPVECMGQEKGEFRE

| IC50 [2] | % Inhibition TF-VIIa (100 µM) ([2]; inhibitor at 100 µM) | % Inhibition Factor Xa (100 µM) ([3]; inhibitor at 100 µM) | Structure (SMILES) | further results |
| --- | --- | --- | --- | --- |
| 0.016 µM | – | – | CC(C)Nc1nc(Br)c(-c2cccc(N)c2)n(CC(=O)NCc2ccc(C(=N)N)cc2)c1=O [Example 124] | IC50 [1]: 4.68 µM; % Inhibition Factor Xa (30 µM) ([3]; at 30 µM inhibitor): 17% |
| 0.7 µM | – | – | CC(C)Nc1nc(Cl)c(-c2cccc(N)c2)n(CC(=O)NNc2ccc(C(=N)N)cc2)c1=O [Example 157] | IC50 [1]: 35 µM; IC50 [3]: 64 µM |
| – | – | – | Nc1cccc(-c2c(Cl)nc(NC3CCC3)c(=O)n2CC(=O)NCc2ccc3ccnc(N)c3c2)c1 [Example 147] | IC50 [1]: > 30 µM; inhibition at 30 µM ([2]; at 30 µM inhibitor): 5%; IC50 [3]: > 30 µM |
| 0.0261 µM | – | – | CC(C)Nc1nc(Cl)c(-c2cc(N)cc(C(=O)NCc3ccccn3)c2)n(CC(=O)NCc2ccc(C(=N)N)cc2)c1=O [Example 128-19] | inhibition at 100 µM [1]: 37%; inhibition at 100 µM [3]: 18% |
| 0.0185 µM | – | – | CC(C)Nc1nc(Cl)c(-c2cc(N)cc(C(=O)NCc3cccnc3)c2)n(CC(=O)NCc2ccc(C(=N)N)cc2)c1=O [Example 128-18] | inhibition at 100 µM [1]: 21% |
| 0.2 µM | – | – | N=C(N)c1ccc(CCC(=O)Cn2c(-c3cccc(N)c3)c(Cl)nc(NC3CCC3)c2=O)cc1 [Example 142] | IC50 [1]: 4.6 µM |
| – | – | – | Nc1cccc(-c2c(Cl)nc(NC3CCC3)c(=O)n2CC(=O)NCc2ccc3[nH]cnc3c2)c1 [Example 146] | IC50 [1]: > 30 µM; % Inhibition Factor Xa (30 µM) ([3]; at 30 µM inhibitor): 5% |
| 0.55 µM | – | – | N=C(N)c1ccc(CNC(=O)Cn2c(-c3ccc(N)cc3)c(Cl)nc(NC3CCC3)c2=O)cc1 [Example 115] | IC50 [1]: 7.5 µM; % Inhibition Factor Xa (30 µM) ([3]; at 30 µM inhibitor): 10% |
| 0.0109 µM | – | – | CC(C)Nc1nc(Cl)c(-c2cc(N)cc(C(=O)NC3CCCCCC3)c2)n(CC(=O)NCc2ccc(C(=N)N)cc2)c1=O [Example 128-17] | IC50 [1]: 20.2 µM; inhibition at 100 µM [3]: 41% |
| – | – | – | Nc1cccc(-c2c(Cl)nc(NC3CCC3)c(=O)n2CC(=O)NCc2ccc(-c3n[nH]c(=O)[nH]3)cc2)c1 [Example 153] | IC50 [1]: > 30 µM; inhibition at 30 µM ([2]; at 30 µM inhibitor): 12%; % Inhibition Factor Xa (30 µM) ([3]; at 30 µM inhibitor): 8% |
| 13.3 µM | – | – | N=C(N)c1ccc(COCCn2c(-c3cccc(N)c3)c(Cl)nc(NC3CCC3)c2=O)cc1 [Example 140] | IC50 [1]: 47.4 µM; inhibition at 100 µM [3]: 24% |
| 0.12 µM | – | – | CSc1ccc(N)cc1-c1c(Cl)nc(NC(C)C)c(=O)n1CC(=O)NCc1ccc(C(=N)N)cc1 [Example 111] | IC50 [1]: > 30 µM; IC50 [3]: > 30 µM |
| 0.011 µM | – | – | CC(C)Nc1nc(Cl)c(-c2cc(N)cc(C(=O)NCc3cccc(F)c3)c2)n(CC(=O)NCc2ccc(C(=N)N)cc2)c1=O [Example 128-12] | inhibition at 100 µM [1]: 47%; inhibition at 100 µM [3]: 33% |
| 0.0491 µM | – | – | CC(C)Nc1nc(Cl)c(-c2cc(N)cc(C(=O)NCc3cccc(C(F)(F)F)c3)c2)n(CC(=O)NCc2ccc(C(=N)N)cc2)c1=O [Example 128-13] | inhibition at 100 µM [1]: 36%; inhibition at 100 µM [3]: 26% |
| – | – | – | N=C(N)c1ccc(NC(=O)Cn2c(-c3cccc(N)c3)c(Cl)nc(NC3CCC3)c2=O)cc1 [Example 141] | inhibition at 100 µM [1]: 11%; inhibition at 30 µM ([2]; at 30 µM inhibitor): 2%; inhibition at 100 µM [3]: 13% |
| 7.03 µM | – | – | N/N=C(/N)c1ccc(CNC(=O)Cn2c(-c3cccc(N)c3)c(Cl)nc(NC3CCC3)c2=O)cc1 [Example 148] | inhibition at 100 µM [1]: 4%; inhibition at 100 µM [3]: 8% |
| 0.0114 µM | – | – | CC(C)Nc1nc(Cl)c(-c2cc(N)cc(C(=O)NCc3ccccc3C(F)(F)F)c2)n(CC(=O)NCc2ccc(C(=N)N)cc2)c1=O [Example 128-11] | inhibition at 100 µM [1]: 46%; inhibition at 100 µM [3]: 35% |
| 4.71 µM | – | – | N=C(N)c1ccc(CNCCn2c(-c3cccc(N)c3)c(Cl)nc(NC3CCC3)c2=O)cc1 [Example 139] | IC50 [1]: 35.8 µM; inhibition at 100 µM [3]: 41% |
| – | 0% | 0% | O=C(Cn1c(Cc2ccccc2)c(Cl)nc(NCCc2cccc(Cl)c2)c1=O)NCCc1ccncc1 [Example E-0059] | – |
| – | – | – | N=C(N)c1ccc(CNC(=O)Cn2c(-c3ccc(-c4ccccc4)cc3)c(Cl)nc(NCCc3cccnc3)c2=O)cc1 [Example 21] | % Inhibition TF-VIIa (30 µM) [2]: 8% @ 30; % Inhibition Factor Xa (30 µM) [3]: 21% @ 30 |
| 0.007 µM | – | – | CC(C)Nc1nc(Cl)c(-c2cc(N)cc(C(=O)NCc3ccccc3)c2)n(CC(=O)NCc2ccc(C(=N)N)cc2)c1=O [Example 128-9] | inhibition at 100 µM [3]: 36% |
| – | 0% | 0% | O=C(Cn1c(-c2ccc(Cl)cc2)c(Cl)nc(NCc2ccccc2)c1=O)NCCc1ccncc1 [Example E-0017] | – |
| – | – | – | Cc1cc(Cl)cc(Cl)c1CNc1nc(Cl)c(-c2ccccc2)n(CC(=O)NCc2ccc(C(=N)N)cc2)c1=O [1512-45] | % Inhibition TF-VIIa (30 µM) ([2]; at 30 µM inhibitor): 27%; % Inhibition Factor Xa (30 µM) ([3]; at 30 µM inhibitor): 11% |
| – | – | – | O=C(Cn1c(-c2ccc(-c3ccccc3)cc2)c(Cl)nc(NCc2ccccc2)c1=O)NCCc1ccncc1 [Example E-0049] | % Inhibition TF-VIIa (100 µM) [2]: 2%; % Inhibition Factor Xa (100 µM) [3]: 0% |
| – | 2% | 3% | COc1ccc(-c2c(Cl)nc(NCCc3cccc(Cl)c3)c(=O)n2CC(=O)NCCc2ccncc2)cc1 [Example E-0103] | – |

| IC50 [2] | % Inhibition TF-VIIa (100 µM) ([2]; inhibitor at 100 µM) | % Inhibition Factor Xa (100 µM) ([3]; inhibitor at 100 µM) | Structure (SMILES) | further results |
| --- | --- | --- | --- | --- |
| – | – | – | COc1ccc(-c2c(Cl)nc(NCc3ccccc3)c(=O)n2CC(=O)NCc2ccc(C(=N)N)cc2)cc1 [1471-33] | % Inhibition TF-VIIa (30 µM) ([2]; at 30 µM inhibitor): 31%; % Inhibition Factor Xa (30 µM) ([3]; at 30 µM inhibitor): 22% |
| – | – | – | N=C(N)c1ccc(CNC(=O)Cn2c(-c3ccc(-c4ccccc4)cc3)c(Cl)nc(NCCc3cccc(Cl)c3)c2=O)cc1 [1471-70] | % Inhibition TF-VIIa (30 µM) ([2]; at 30 µM inhibitor): 10%; % Inhibition Factor Xa (30 µM) ([3]; at 30 µM inhibitor): 12% |
| – | 3% | 4% | O=C(Cn1c(-c2cccc(Cl)c2)c(Cl)nc(NCCc2ccccc2)c1=O)NCCc1cccnc1 [Example E-0089] | – |
| – | 0% | 0% | O=C(Cn1c(-c2ccc(Cl)cc2)c(Cl)nc(NCCc2ccncc2)c1=O)NCCc1ccncc1 [Example E-0022] | – |
| – | 2% | 4% | O=C(Cn1c(-c2cccc(Cl)c2)c(Cl)nc(NCCc2ccc(Cl)cc2)c1=O)NCCc1cccnc1 [Example E-0095] | – |
| – | 0% | 0% | COc1ccc(-c2c(Cl)nc(NCCc3cccnc3)c(=O)n2CC(=O)NCCc2ccncc2)cc1 [Example E-0037] | – |
| – | 0% | 0% | Cc1c(Cl)nc(NCCN2CCOCC2)c(=O)n1CC(=O)NCCc1ccncc1 [Example E-0007] | – |
| – | 0% | 0% | O=C(Cn1c(CCc2ccccc2)c(Cl)nc(NCCc2ccc(Cl)cc2)c1=O)NCCc1ccncc1 [Example E-0068] | – |
| – | 5% | 3% | COc1ccc(-c2c(Cl)nc(NCCc3ccc(Cl)cc3)c(=O)n2CC(=O)NCCc2ccncc2)cc1 [Example E-0106] | – |
| – | 0% | 0% | O=C(Cn1c(-c2cccc(Cl)c2)c(Cl)nc(NCc2ccccc2)c1=O)NCCc1cccnc1 [Example E-0074] | – |
| 0.038 µM | – | – | COC(=O)c1cc(N)cc(-c2c(Cl)nc(NC(C)C)c(=O)n2CC(=O)NCc2ccc(C(=N)N)cc2)c1 [Example 125] | inhibition at 100 µM [3]: 36% |
| – | 0% | 0% | Cc1c(Cl)nc(NCCc2ccc(Cl)cc2)c(=O)n1CC(=O)NCCc1ccncc1 [Example E-0004] | – |
| – | 0% | 0% | O=C(Cn1c(-c2ccc(Cl)cc2)c(Cl)nc(NCCc2ccc(Cl)cc2)c1=O)NCCc1ccncc1 [Example E-0028] | – |
| – | 0% | 0% | COc1ccc(-c2c(Cl)nc(NCCc3ccncc3)c(=O)n2CC(=O)NCCc2ccncc2)cc1 [Example E-0038] | – |
| – | – | – | N=C(N)c1ccc(CNC(=O)Cn2c(-c3ccc(Cl)cc3)c(Cl)nc(NCCN3CCOCC3)c2=O)cc1 [1471-20] | % Inhibition TF-VIIa (30 µM) ([2]; at 30 µM inhibitor): 42%; % Inhibition Factor Xa (30 µM) ([3]; at 30 µM inhibitor): 34% |
| – | 0% | 1% | O=C(Cn1c(-c2cccc(Cl)c2)c(Cl)nc(NCCc2ccccc2)c1=O)NCCc1ccncc1 [Example E-0076] | – |
| – | 0% | 0% | COc1ccc(-c2c(Cl)nc(NCc3ccccc3)c(=O)n2CC(=O)NCCc2ccncc2)cc1 [Example E-0033] | – |
| – | 4% | 0% | COc1ccc(-c2c(Cl)nc(NCCc3cccc(Cl)c3)c(=O)n2CC(=O)NCCc2ccncc2)cc1 [Example E-0035] | – |
| – | 0% | 4% | O=C(Cn1c(-c2cccc(Cl)c2)c(Cl)nc(NCCc2cccc(Cl)c2)c1=O)NCCc1ccncc1 [Example E-0079] | – |
| – | 0% | 0% | Cc1c(Cl)nc(NCc2ccncc2)c(=O)n1CC(=O)NCCc1ccncc1 [Example E-0008] | – |
| – | 0% | 0% | O=C(Cn1c(-c2ccc(Cl)cc2)c(Cl)nc(NCc2ccncc2)c1=O)NCCc1ccncc1 [Example E-0024] | – |
| – | 0% | 0% | O=C(Cn1c(-c2ccccc2)c(Cl)nc(NCCN2CCOCC2)c1=O)NCCc1ccncc1 [Example E-0015] | – |
| – | 0% | 0% | O=C(Cn1c(-c2ccccc2)c(Cl)nc(NCCc2ccccc2)c1=O)NCCc1ccncc1 [Example E-0010] | – |
| – | 0% | 2% | COc1ccc(-c2c(Cl)nc(NCc3ccccc3)c(=O)n2CC(=O)NCCc2cccnc2)cc1 [Example E-0098] | – |
| – | 0% | 0% | O=C(Cn1c(-c2ccccc2)c(Cl)nc(NCCc2ccc(Cl)cc2)c1=O)NCCc1ccncc1 [Example E-0012] | – |

— patent US6908919B2, “Substituted polycyclic aryl and heteroaryl pyrazinones useful for selective inhibition of the coagulation cascade” (Pharmacia Corporation, priority 1999, dated 2005)
